Consider 19 molecules from patent US12344610B2, “APOL1 inhibitors and methods of use” (Maze Therapeutics, Inc., priority 2022, dated 2025).

For one assay, the target named is T1, APOL1 G2 (Homo sapiens, UniProt O14791, DEL388-389).
T1 construct: expressed in transfected cells; host or cells: HEK293 T-REx clonal line stably expressing GCaMP6f (HEK T-REx/GCaMP6f/APOL1 G2 K6.3), doxycycline induced
T1 sequence (O14791 with tags, fused parts or gaps DEL388-389): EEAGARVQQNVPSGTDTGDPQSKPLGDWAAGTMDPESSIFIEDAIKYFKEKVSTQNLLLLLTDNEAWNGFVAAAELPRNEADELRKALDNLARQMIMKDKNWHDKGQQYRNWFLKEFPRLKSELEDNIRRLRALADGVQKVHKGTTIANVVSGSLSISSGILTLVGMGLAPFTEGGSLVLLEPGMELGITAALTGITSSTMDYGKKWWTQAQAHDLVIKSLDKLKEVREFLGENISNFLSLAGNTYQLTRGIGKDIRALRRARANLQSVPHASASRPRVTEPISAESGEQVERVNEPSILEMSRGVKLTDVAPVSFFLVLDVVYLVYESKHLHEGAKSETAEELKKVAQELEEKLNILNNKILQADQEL
Put plainly: APOL1-mediated calcium transport (calcium influx) assay, HEK T-REx/GCaMP6f/APOL1 G2 K6.3 cells, FLIPR TETRA. The format is cell-based. Conditions: prevention of calcium influx; geometric mean of at least 2 assay runs; † = average of a technical replicate from a single assay run. Summed up: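 A HEK293 T-REx clone stably expressing GCaMP6f had APOL1 G2 induced with doxycycline (20 ng/mL solution added) for 6 h. Cells were then washed into Ca2+-free Tyrode's buffer (pH 7.4) and preincubated with compounds (duplicate 8-point) for 10 min at room temperature. Ca2+ injection to 5 mM final produced FLIPR GCaMP fluorescence, giving AC50 for influx inhibition (geometric mean, ≥2 runs).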

Assay [1] has as its system HEK293 cells overexpressing APOL1 G2. In words: APOL1 G2 HEK293 cell rescue assay (reversal of cell death caused by overexpression of APOL1). The format is cell-based. Particulars: Homo sapiens, HEK293, HEK293 overexpressing APOL1 G2; geometric mean of at least 2 assay runs; † = single assay run. Summed up: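 EC50 is the half-maximal effective concentration for reversing cell death driven by APOL1 G2 overexpression in HEK293 cells. Reported as geometric mean of at least 2 runs on separate days, each run averaging duplicate wells per plate; some values from a single run.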

Where only a bound is given, the exact number is not on record here.

The term AC50 denotes the midpoint of the concentration-response curve, whichever way the signal moves. A word on the EC50: it is the concentration at which the effect is half-maximal. On to `[2H]C([2H])(Oc1cnc2c(c1)CCC(=O)N2[C@H]1C[C@@](C)(O)C1)C([2H])([2H])N1CCC2(CC1)C(=O)Nc1ccc(Cl)cc12` [Compound 426, 5-chloro-1′-[2-({7-oxo-8-[(cis)-3-hydroxy-3-methylcyclobutyl]-5,6,7,8-tetrahydro-1,8-naphthyridin-3-yl}oxy)(1,1,2,2-^2H4)ethyl]-1,2-dihydrospiro[indole-3,4′-piperidin]-2-one], for which the AC50 on APOL1 G2 worked out at 597 nM. For the same molecule, in assay [1], the EC50 came out at 37.8 nM.

For the molecule `C[C@]1(O)C[C@@H](n2cc3cc(OCCN4CCC5(CC4)C(=O)Nc4ccc(Cl)cc45)cc(C(F)(F)F)c3n2)C1` [Compound 427, 5-chloro-1′-[2-({2-[(cis)-3-hydroxy-3-methylcyclobutyl]-7-(trifluoromethyl)-2H-indazol-5-yl}oxy)ethyl]-1,2-dihydrospiro[indole-3,4′-piperidin]-2-one], on APOL1 G2, the half-maximal activity concentration (AC50) was found to be 708 nM. Also, the EC50 in assay [1] is 18.5 nM.

For `C[C@]1(O)C[C@@H](n2cc3cc(OCCN4CCC5(CC4)C(=O)Nc4ccc(C#N)cc45)cc(C(F)(F)F)c3n2)C1` [Compound 428, 2-oxo-1′-[2-({2-[(cis)-3-hydroxy-3-methylcyclobutyl]-7-(trifluoromethyl)-2H-indazol-5-yl}oxy)ethyl]-1,2-dihydrospiro[indole-3,4′-piperidine]-5-carbonitrile], the half-maximal activity concentration (AC50) on APOL1 G2 amounted to 1200 nM. Also, the concentration for a half-maximal effect (EC50) in assay [1] was determined as 54.3 nM.

In the case of `C[C@]1(O)C[C@@H](n2cnc3cc(OCCN4CCC5(CC4)C(=O)Nc4ccc(C#N)cc45)cc(C(F)(F)F)c32)C1` [Compound 433, 1′-(2-((1-((cis)-3-hydroxy-3-methylcyclobutyl)-7-(trifluoromethyl)-1H-benzo[d]imidazol-5-yl)oxy)ethyl)-2-oxospiro[indoline-3,4′-piperidine]-5-carbonitrile], the AC50 on APOL1 G2 is 1300 nM. Besides, the 50% effective concentration (EC50) in assay [1] is 14.8 nM.

With `C[C@]1(O)C[C@@H](n2nnc3cc(OCCN4CCC5(CC4)C(=O)Nc4ccc(Cl)cc45)cc(C(F)(F)F)c32)C1` [Compound 434, 5-chloro-1′-[2-({1-[(cis)-3-hydroxy-3-methylcyclobutyl]-7-(trifluoromethyl)-1H-1,2,3-benzotriazol-5-yl}oxy)ethyl]-1,2-dihydrospiro[indole-3,4′-piperidin]-2-one], the concentration at half-maximal activity (AC50) at APOL1 G2 stood at 1270 nM. For the same molecule, in assay [1], the EC50 was 11.2 nM.

On to `C[C@]1(O)C[C@@H](n2nnc3cc(OCCN4CCC5(CC4)C(=O)Nc4ccc(C#N)cc45)cc(C(F)(F)F)c32)C1` [Compound 435, 2-oxo-1′-[2-({1-[(cis)-3-hydroxy-3-methylcyclobutyl]-7-(trifluoromethyl)-1H-1,2,3-benzotriazol-5-yl}oxy)ethyl]-1,2-dihydrospiro[indole-3,4′-piperidine]-5-carbonitrile], for which the half-maximal activity concentration (AC50) on APOL1 G2 is 1170 nM. For the same molecule, the half-maximal effective concentration (EC50) in assay [1] stood at 12.9 nM.

With `C[C@]1(O)C[C@@H](n2cnc3cc(OCCN4CCC5(CC4)C(=O)Nc4ccc(Cl)cc45)cc(C#N)c32)C1` [Compound 439, 5-(2-{5-chloro-2-oxo-1,2-dihydrospiro[indole-3,4′-piperidin]-1′-yl}ethoxy)-1-[(cis)-3-hydroxy-3-methylcyclobutyl]-1H-1,3-benzodiazole-7-carbonitrile], the AC50 on APOL1 G2 is 603 nM. Further, the 50% effective concentration (EC50) in assay [1] came to 14.9 nM.

Consider `C[C@]1(O)C[C@@H](n2nnc3cc(OCCN4CCC5(CC4)C(=O)Nc4ccc(Cl)cc45)cnc32)C1` [Compound 440, 5-chloro-1′-[2-({3-[(cis)-3-hydroxy-3-methylcyclobutyl]-3H-[1,2,3]triazolo[4,5-b]pyridin-6-yl}oxy)ethyl]-1,2-dihydrospiro[indole-3,4′-piperidin]-2-one], for which, on APOL1 G2, the AC50 worked out at 552 nM. Besides, in assay [1], the EC50 turned out to be 54.4 nM.

As to `Cc1nc2cc(OCCN3CCC4(CC3)C(=O)Nc3ccc(Cl)cc34)cc(C(F)(F)F)c2n1[C@H]1C[C@@](C)(O)C1` [Compound 442, 5-chloro-1′-[2-({2-methyl-1-[(cis)-3-hydroxy-3-methylcyclobutyl]-7-(trifluoromethyl)-1H-1,3-benzodiazol-5-yl}oxy)ethyl]-1,2-dihydrospiro[indole-3,4′-piperidin]-2-one], on APOL1 G2, the AC50 amounted to 2140 nM. The EC50 in assay [1] was below 3.08 nM.

In the case of `Cc1nc2cc(OCCN3CCC4(CC3)C(=O)Nc3ccc(C#N)cc34)cc(C(F)(F)F)c2n1[C@H]1C[C@@](C)(O)C1` [Compound 443, 1′-[2-({2-methyl-1-[(cis)-3-hydroxy-3-methylcyclobutyl]-7-(trifluoromethyl)-1H-1,3-benzodiazol-5-yl}oxy)ethyl]-2-oxo-1,2-dihydrospiro[indole-3,4′-piperidine]-5-carbonitrile], the concentration at half-maximal activity (AC50) at APOL1 G2 was 2670 nM. Also, in assay [1], the concentration for a half-maximal effect (EC50) was 10.2 nM.

In the case of `C[C@]1(O)C[C@@H](n2cnc3cc(OCCN4CCC5(CC4)C(=O)Nc4ccc(C(F)F)cc45)cc(C(F)(F)F)c32)C1` [Compound 450, 5-(difluoromethyl)-1′-[2-({1-[(cis)-3-hydroxy-3-methylcyclobutyl]-7-(trifluoromethyl)-1H-1,3-benzodiazol-5-yl}oxy)ethyl]-1,2-dihydrospiro[indole-3,4′-piperidin]-2-one], at APOL1 G2, the AC50 stood at 2270 nM. For the same molecule, the concentration giving a half-maximal response (EC50) in assay [1] turned out to be 5.5 nM.

In the case of `C[C@]1(O)C[C@@H](n2cnc3cc(OCCN4CCC5(CC4)C(=O)Nc4c(I)cc(Cl)cc45)cc(C(F)(F)F)c32)C1` [Compound 453, 5-chloro-7-iodo-1′-[2-({1-[(cis)-3-hydroxy-3-methylcyclobutyl]-7-(trifluoromethyl)-1H-1,3-benzodiazol-5-yl}oxy)ethyl]-1,2-dihydrospiro[indole-3,4′-piperidin]-2-one], at APOL1 G2, the AC50 is 935 nM. For the same molecule, the EC50 in assay [1] is 19.1 nM.

With `C[C@]1(O)C[C@@H](n2cnc3cc(OCCN4CCC5(CC4)C(=O)Nc4ccc(Cl)cc45)cc(F)c32)C1` [Compound 454, 5-chloro-1′-(2-((7-fluoro-1-((cis)-3-hydroxy-3-methylcyclobutyl)-1H-benzo[d]imidazol-5-yl)oxy)ethyl)spiro[indoline-3,4′-piperidin]-2-one], the AC50 at APOL1 G2 was determined as 473 nM. In assay [1], the half-maximal effective concentration (EC50) was determined as 24.1 nM.

With `CC1(O)CC2(CN(c3ncc(OCCN4CCC5(CC4)C(=O)Nc4ccc(Cl)cc45)cn3)C2)C1` [Compound 459, 5-chloro-1′-{2-[(2-{6-hydroxy-6-methyl-2-azaspiro[3.3]heptan-2-yl}pyrimidin-5-yl)oxy]ethyl}-1,2-dihydrospiro[indole-3,4′-piperidin]-2-one], at APOL1 G2, the half-maximal activity concentration (AC50) came out at 370 nM. In assay [1], the EC50 worked out at 29 nM.

With `C[C@]1(O)C[C@@H](N2C(=O)C3(CC3)c3cc(OCCN4CCC5(CC4)C(=O)Nc4ccc(Cl)cc45)cnc32)C1` [Compound 460, 5-chloro-1′-(2-{2′-oxo-1′-[(cis)-3-hydroxy-3-methylcyclobutyl]-1′,2′-dihydrospiro[cyclopropane-1,3′-pyrrolo[2,3-b]pyridin]-5′-yloxy}ethyl)-1,2-dihydrospiro[indole-3,4′-piperidin]-2-one], the AC50 at APOL1 G2 is 317 nM. Also, in assay [1], the EC50 was 54.1 nM.

On to `[2H]C([2H])([2H])[C@]1(O)C[C@@H](N2C(=O)CCc3cc(OCCN4CCC5(CC4)C(=O)Nc4ccc(Cl)cc45)cnc32)C1` [Compound 461, 5-chloro-1′-[2-({7-oxo-8-[(cis)-3-hydroxy-3-(^2H3)methylcyclobutyl]-5,6,7,8-tetrahydro-1,8-naphthyridin-3-yl}oxy)ethyl]-1,2-dihydrospiro[indole-3,4′-piperidin]-2-one], for which, at APOL1 G2, the half-maximal activity concentration (AC50) was 676 nM. In addition, the 50% effective concentration (EC50) in assay [1] is 28.1 nM.

On to `C[C@]1(O)C[C@@H](n2ncc3cc(OCCN4CCC5(CC4)C(=O)Nc4ccc(Cl)cc45)cc(C(F)(F)F)c32)C1` [Compound 464, 5-chloro-1′-[2-({1-[(cis)-3-hydroxy-3-methylcyclobutyl]-7-(trifluoromethyl)-1H-indazol-5-yl}oxy)ethyl]-1,2-dihydrospiro[indole-3,4′-piperidin]-2-one], for which, at APOL1 G2, the AC50 is 1190 nM. Moreover, in assay [1], the EC50 amounted to 5.02 nM.

Turning to `C[C@]1(O)C[C@@H](n2ncc3cc(OCCN4CCC5(CC4)C(=O)Nc4ccc(C#N)cc45)cc(C(F)(F)F)c32)C1` [Compound 465, 2-oxo-1′-[2-({1-[(cis)-3-hydroxy-3-methylcyclobutyl]-7-(trifluoromethyl)-1H-indazol-5-yl}oxy)ethyl]-1,2-dihydrospiro[indole-3,4′-piperidine]-5-carbonitrile], the concentration at half-maximal activity (AC50) on APOL1 G2 stood at 748 nM. Further, in assay [1], the half-maximal effective concentration (EC50) is 8.86 nM.

For `C[C@]1(O)C[C@@H](n2c(=O)[nH]c3cc(OCCN4CCC5(CC4)C(=O)Nc4ccc(Cl)cc45)cc(C(F)(F)F)c32)C1` [Compound 468, 5-chloro-1′-[2-({2-oxo-1-[(cis)-3-hydroxy-3-methylcyclobutyl]-7-(trifluoromethyl)-2,3-dihydro-1H-1,3-benzodiazol-5-yl}oxy)ethyl]-1,2-dihydrospiro[indole-3,4′-piperidin]-2-one], the AC50 at APOL1 G2 amounted to 867 nM. Moreover, in assay [1], the half-maximal effective concentration (EC50) turned out to be 6.45 nM.
